Active and inactive are the calls of the source.
Key:
SN12K1 = assay: cells; format: functional; settings: Homo sapiens
P388/ADR = assay: cells; format: functional; settings: Mus musculus
P388 = assay: cells; format: functional; settings: Mus musculus
[1] = biological target: T1, Endoribonuclease toxin MazF (Escherichia coli K-12, UniProt P0AE70); assay: substrate-only fluorescence increase artefacts – biochemical, single-stranded RNase substrate, counter-screen for MazEF activator project, dose response (AID 588502); format: functional
T1 sequence (P0AE70 whole entry): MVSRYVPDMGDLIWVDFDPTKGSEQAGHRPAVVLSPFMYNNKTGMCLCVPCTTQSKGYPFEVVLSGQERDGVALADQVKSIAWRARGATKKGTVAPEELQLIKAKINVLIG

[2] = biological target: T1, Endoribonuclease toxin MazF; assay: activation of MazEF endoribonuclease cleavage – biochemical, fluorescence, single-stranded RNA substrate, uHTS hits, dose response (AID 588481); format: functional
[3] = biological target: T2, Probable nicotinate-nucleotide adenylyltransferase (Staphylococcus aureus (strain N315), UniProt P65502); format: functional, Staphylococcus aureus subsp. aureus N315;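 on IC50 Mean: confirmatory dose-response retesting of NadD inhibitor hits first found in an ultra-high-throughput screen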
T2 sequence (P65502 whole entry): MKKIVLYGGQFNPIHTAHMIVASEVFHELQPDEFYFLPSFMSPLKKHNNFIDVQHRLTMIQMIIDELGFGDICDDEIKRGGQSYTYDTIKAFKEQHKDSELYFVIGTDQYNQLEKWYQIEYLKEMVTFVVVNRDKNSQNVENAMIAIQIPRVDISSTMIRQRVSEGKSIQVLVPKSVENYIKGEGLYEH

[4] = biological target: T2, Probable nicotinate-nucleotide adenylyltransferase; format: functional, Staphylococcus aureus subsp. aureus N315; settings: read-out: IC50_Mean
[5] = biological target: T3, Type-1 angiotensin II receptor (Homo sapiens, UniProt P30556); assay: antagonism of angiotensin II type 1 receptor – cell-based, uHTS hits, selectivity assay for APJ receptor antagonist project, dose response (AID 463214); format: functional;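 further: antagonist potency against angiotensin II stimulated AT1 response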
T3 sequence (P30556 whole entry): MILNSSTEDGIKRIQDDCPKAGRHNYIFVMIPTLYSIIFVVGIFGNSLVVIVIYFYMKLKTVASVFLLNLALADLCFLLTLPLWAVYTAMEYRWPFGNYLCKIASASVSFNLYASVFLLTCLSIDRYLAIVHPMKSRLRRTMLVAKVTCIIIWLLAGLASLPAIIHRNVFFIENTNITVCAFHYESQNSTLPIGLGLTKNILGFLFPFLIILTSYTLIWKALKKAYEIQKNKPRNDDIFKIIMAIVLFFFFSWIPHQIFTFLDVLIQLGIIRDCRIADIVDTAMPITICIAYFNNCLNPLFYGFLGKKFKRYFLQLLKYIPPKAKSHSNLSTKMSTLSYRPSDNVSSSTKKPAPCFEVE

Beta-galactosidase = Beta-galactosidase (Escherichia coli, UniProt Q8VNN2); assay: PubChem AID 485352; format: functional
Chain of Beta-galactosidase (Q8VNN2 whole entry): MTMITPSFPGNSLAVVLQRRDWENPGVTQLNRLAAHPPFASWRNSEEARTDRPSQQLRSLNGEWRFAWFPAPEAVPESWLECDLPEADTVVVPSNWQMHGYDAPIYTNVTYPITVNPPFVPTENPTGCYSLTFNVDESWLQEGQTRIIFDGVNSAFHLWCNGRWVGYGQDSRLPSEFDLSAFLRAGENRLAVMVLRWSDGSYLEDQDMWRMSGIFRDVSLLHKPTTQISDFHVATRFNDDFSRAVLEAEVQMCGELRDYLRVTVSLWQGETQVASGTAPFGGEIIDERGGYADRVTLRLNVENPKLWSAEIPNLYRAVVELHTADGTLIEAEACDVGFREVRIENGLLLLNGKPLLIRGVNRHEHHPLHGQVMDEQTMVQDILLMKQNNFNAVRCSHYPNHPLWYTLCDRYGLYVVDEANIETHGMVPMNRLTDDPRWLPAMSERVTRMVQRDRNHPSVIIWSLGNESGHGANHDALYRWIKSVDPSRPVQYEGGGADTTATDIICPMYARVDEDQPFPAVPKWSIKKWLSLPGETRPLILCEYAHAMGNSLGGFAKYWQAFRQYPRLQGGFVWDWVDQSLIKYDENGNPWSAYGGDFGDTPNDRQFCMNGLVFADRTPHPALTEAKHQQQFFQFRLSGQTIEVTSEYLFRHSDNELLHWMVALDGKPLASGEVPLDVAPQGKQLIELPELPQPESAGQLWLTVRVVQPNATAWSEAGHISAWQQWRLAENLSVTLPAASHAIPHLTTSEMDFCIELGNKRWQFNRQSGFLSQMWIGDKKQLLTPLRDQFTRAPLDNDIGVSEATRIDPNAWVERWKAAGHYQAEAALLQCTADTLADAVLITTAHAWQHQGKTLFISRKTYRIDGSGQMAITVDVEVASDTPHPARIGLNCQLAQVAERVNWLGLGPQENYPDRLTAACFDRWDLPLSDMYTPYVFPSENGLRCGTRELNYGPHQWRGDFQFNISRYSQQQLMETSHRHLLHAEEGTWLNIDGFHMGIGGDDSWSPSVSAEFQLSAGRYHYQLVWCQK

[6] = biological target: T4, Small ubiquitin-related modifier 1 (Homo sapiens, UniProt P63165); assay: SUMO1 protein interaction blockers, potency – biochemical, fluorescence polarization, uHTS hits, dose response (AID 624382); format: functional; settings: read-out: IC50_Mean
T4 sequence (P63165 whole entry): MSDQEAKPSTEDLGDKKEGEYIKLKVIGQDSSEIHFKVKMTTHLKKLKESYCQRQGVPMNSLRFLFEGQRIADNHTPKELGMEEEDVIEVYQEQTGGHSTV

[7] = biological target: T4, Small ubiquitin-related modifier 1; assay: SUMO1 protein-protein binding blockers, potency – biochemical, FRET, dose response (AID 624383); format: functional; settings: read-out: IC50_Mean
Vero = assay: cells; format: functional; settings: Chlorocebus sabaeus
[8] = Fluorescence-based cell-based high throughput dose response assay for inhibitors of the interaction of nucleotide-binding oligomerization domain containing 2 (NOD2) and the receptor-interacting serine-threonine kinase 2 (RIPK2).; format: functional; settings: Homo sapiens
[9] = biological target: Heat shock protein HSP 90-alpha (Homo sapiens, UniProt P07900); format: functional, organism-based
Cytochrome P450 3A4 = Cytochrome P450 3A4 (Homo sapiens, UniProt P08684);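 further: CYP3A4 tested as one member of a cytochrome P450 panel screen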
Chain of Cytochrome P450 3A4 (P08684 whole entry): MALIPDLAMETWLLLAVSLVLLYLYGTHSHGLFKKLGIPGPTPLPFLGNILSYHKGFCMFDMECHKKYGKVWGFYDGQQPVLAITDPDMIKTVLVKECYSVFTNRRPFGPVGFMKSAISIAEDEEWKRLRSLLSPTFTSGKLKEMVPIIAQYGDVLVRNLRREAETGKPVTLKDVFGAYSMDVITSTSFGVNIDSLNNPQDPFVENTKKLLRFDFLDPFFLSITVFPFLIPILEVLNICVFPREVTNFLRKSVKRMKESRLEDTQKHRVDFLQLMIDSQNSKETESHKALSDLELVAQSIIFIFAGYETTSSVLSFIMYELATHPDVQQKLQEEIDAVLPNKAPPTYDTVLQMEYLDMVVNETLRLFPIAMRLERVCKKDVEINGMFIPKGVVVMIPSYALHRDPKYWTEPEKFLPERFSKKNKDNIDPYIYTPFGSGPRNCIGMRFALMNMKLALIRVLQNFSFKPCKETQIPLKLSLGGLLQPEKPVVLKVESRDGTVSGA

Cytochrome P450 2D6 = Cytochrome P450 2D6 (Homo sapiens, UniProt P10635);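 further: CYP2D6 member of a cytochrome P450 panel assay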
Chain of Cytochrome P450 2D6 (P10635 whole entry): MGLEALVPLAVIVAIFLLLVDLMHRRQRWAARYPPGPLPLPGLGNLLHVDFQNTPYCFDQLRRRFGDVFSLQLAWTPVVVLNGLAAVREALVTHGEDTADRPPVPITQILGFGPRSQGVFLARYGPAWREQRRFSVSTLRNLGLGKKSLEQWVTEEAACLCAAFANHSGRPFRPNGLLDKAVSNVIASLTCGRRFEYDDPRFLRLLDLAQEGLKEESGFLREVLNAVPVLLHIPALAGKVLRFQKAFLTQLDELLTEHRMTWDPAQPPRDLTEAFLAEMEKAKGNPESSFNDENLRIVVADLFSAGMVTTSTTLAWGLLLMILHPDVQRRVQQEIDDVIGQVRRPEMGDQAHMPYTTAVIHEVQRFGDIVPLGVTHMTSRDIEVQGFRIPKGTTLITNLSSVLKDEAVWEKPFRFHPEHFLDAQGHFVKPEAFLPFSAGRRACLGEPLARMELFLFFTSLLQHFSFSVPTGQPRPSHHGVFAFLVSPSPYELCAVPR

Cytochrome P450 1A2 = biological target: T5, Cytochrome P450 1A2 (Homo sapiens, UniProt P05177);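 further: PubChem cytochrome P450 panel assay, CYP1A2 panel member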
T5 sequence (P05177 whole entry): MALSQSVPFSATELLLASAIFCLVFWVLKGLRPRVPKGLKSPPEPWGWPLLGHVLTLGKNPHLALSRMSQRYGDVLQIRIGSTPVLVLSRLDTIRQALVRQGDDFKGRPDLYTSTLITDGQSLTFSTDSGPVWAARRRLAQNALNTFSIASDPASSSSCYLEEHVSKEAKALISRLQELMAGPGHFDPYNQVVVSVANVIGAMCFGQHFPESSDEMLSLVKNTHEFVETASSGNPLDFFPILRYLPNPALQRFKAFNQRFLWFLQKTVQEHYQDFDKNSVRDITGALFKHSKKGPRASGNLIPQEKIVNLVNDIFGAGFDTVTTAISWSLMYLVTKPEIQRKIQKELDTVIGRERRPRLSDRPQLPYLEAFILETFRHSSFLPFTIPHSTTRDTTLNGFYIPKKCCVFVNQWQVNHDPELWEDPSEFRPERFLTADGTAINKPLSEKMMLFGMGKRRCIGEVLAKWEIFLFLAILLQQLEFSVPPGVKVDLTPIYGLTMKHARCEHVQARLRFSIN

Cytochrome P450 2C9 = Cytochrome P450 2C9 (Homo sapiens, UniProt P11712)
Chain of Cytochrome P450 2C9 (P11712 whole entry): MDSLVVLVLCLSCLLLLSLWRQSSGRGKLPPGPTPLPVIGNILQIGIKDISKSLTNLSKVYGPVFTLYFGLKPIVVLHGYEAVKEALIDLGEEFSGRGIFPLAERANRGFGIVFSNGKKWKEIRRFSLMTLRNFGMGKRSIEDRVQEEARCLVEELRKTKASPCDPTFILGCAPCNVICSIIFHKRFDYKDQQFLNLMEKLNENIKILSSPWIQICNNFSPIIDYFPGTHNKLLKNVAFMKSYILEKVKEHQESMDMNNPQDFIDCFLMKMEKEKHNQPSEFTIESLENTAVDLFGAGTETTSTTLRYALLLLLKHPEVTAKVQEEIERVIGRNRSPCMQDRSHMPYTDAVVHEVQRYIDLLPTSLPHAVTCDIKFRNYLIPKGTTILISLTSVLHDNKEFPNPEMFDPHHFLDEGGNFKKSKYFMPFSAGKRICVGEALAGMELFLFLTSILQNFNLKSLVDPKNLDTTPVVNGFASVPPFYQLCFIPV

Melanocortin receptor 4 = Melanocortin receptor 4 (Homo sapiens, UniProt P32245); assay: inhibitors of MC4R cAMP signaling – cell-based, TR-FRET, biased antagonists, dose response (AID 602298); format: functional;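 further: antagonist potency against agonist-stimulated cAMP production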
Chain of Melanocortin receptor 4 (P32245 whole entry): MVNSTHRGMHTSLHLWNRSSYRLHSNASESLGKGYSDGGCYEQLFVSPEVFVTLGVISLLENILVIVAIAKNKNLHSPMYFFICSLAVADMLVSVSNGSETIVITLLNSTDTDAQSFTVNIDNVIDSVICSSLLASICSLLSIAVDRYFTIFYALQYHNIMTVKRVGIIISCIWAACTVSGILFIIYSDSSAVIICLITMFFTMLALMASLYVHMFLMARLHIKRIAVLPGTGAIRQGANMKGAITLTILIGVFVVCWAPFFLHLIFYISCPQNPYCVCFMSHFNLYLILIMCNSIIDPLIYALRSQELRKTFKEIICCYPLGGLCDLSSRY

[10] = cAMP pathway inhibition in counterscreen cell line – TR-FRET cAMP detection, counter-screen for MC4R biased antagonist project, dose response (AID 602305); format: functional, cell-based;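 further: U2OS cells stimulated with forskolin near its EC80 as the cAMP inducer; potency is for inhibition of forskolin-stimulated cAMP signaling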
Nonstructural protein 1 = Nonstructural protein 1 (Influenza A virus, UniProt Q194T2); format: functional, Influenza A virus (A/California/07/2009(H1N1))
Chain of Nonstructural protein 1 (Q194T2 whole entry): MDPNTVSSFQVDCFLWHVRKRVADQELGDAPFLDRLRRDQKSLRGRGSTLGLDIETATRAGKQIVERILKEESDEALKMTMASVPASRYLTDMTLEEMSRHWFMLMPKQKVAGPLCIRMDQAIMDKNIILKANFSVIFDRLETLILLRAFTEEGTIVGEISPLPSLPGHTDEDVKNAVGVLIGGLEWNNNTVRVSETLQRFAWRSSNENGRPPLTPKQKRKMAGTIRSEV

[11] = viability loss in HeLa cells – cytotoxicity control for MgcRacGAP inhibitor project, dose response (AID 624300); format: functional
[12] = biological target: T6, Rac GTPase-activating protein 1 (Homo sapiens, UniProt Q9H0H5); assay: blockers of MgcRacGAP-driven Rac1 GTP hydrolysis – biochemical, ADP Hunter fluorescence, primary and confirmatory, confirmation (AID 624330); format: functional
T6 sequence (Q9H0H5 whole entry): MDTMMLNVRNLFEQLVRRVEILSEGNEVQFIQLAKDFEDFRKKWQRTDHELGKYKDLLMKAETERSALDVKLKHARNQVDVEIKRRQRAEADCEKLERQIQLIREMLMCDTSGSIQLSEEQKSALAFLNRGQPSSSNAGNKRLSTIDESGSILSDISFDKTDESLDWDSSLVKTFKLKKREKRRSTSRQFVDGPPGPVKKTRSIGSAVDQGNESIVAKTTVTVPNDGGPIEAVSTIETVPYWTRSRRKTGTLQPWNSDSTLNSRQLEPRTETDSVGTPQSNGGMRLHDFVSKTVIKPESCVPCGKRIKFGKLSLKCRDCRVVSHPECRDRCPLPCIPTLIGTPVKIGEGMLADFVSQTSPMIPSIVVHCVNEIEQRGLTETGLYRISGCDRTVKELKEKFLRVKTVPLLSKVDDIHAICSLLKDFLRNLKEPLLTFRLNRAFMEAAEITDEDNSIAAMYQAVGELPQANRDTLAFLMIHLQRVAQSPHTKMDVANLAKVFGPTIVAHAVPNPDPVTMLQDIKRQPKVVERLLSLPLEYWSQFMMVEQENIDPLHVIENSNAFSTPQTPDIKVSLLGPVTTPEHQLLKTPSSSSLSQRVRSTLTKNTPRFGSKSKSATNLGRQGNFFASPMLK

O=C1CCCCN1
GI50 (SN12K1): > 1120 µM (inactive)
GI50 (P388/ADR): > 1120 µM (inactive)
GI50 (P388): 764 µM (inactive)

CCOc1ccc2c(c1)S/C(=C\c1cccs1)C(=O)N2
EC50 [1]: > 99 µM (inactive)
EC50 [2]: > 99 µM (inactive)

C/C=C\C=C\C(=O)Nc1cccc(C2=NOC3(C2)C[C@@H](C(N)=O)N(C(=O)C(c2ccccc2)c2ccccc2)C3)c1 (stereo partly drawn)
IC50 [3]: 11.9 µM (active)
IC50 [4]: 22.8 µM (active)

Cc1nn(CCC(=O)NNC(S)=NCC(C)C)c(C)c1Br
IC50 [5]: 15.9 µM (active)
EC50 (Beta-galactosidase): 32.1 µM (active)

O=c1[nH]c(=O)c2nc3c4ccccc4c4ccccc4c3nc2[nH]1
IC50 [6]: > 66.6 µM (inactive)
IC50 [7]: 2.56 µM (active)

COc1cc(/C=C/[N+](=O)[O-])ccc1OC(=O)c1cccnc1
CC50 (Vero): 17.5 µM (active)
IC50 [5]: 5.87 µM (active)
IC50 [8]: 1.82 µM (active)
EC50 (Beta-galactosidase): > 40 µM (inactive)
AC50 [9]: 4.36 µM (active)

Cc1ccc(-c2cc(C#N)c(=O)n(Cc3c(Cl)cccc3Cl)c2)cc1
EC50 [1]: 41.9 µM (inactive)
EC50 [2]: > 99 µM (inactive)

COc1ccc(NS(=O)(=O)c2ccc(NC(=S)NC(=O)/C=C/c3ccccc3)cc2)nn1
IC50 [3]: 6.28 µM (active)
IC50 [4]: 40.6 µM (active)

COC(=O)c1ccc(OCC(=O)Nc2nn(-c3ccccc3)nc2C(N)=O)cc1
IC50 [6]: > 66.6 µM (inactive)
IC50 [7]: 3.99 µM (active)

N#Cc1cccc(NC(=O)N2CC3(CCN(C(=O)Oc4ccccc4)CC3)C2)c1
AC50 (Cytochrome P450 3A4): inconclusive
AC50 (Cytochrome P450 2D6): 39.8 µM (inconclusive)
AC50 (Cytochrome P450 1A2): 15.8 µM (inconclusive)
AC50 (Cytochrome P450 2C9): 15.8 µM (inconclusive)

COc1cc(NS(=O)(=O)c2ccc(NC(=S)NC(=O)C3CCCC3)cc2)nc(OC)n1
IC50 [5]: > 40 µM (not active)
EC50 (Beta-galactosidase): > 40 µM (inactive)

CCOc1ccc2c(ccc(/C=C/c3cc(C)c4cccnc4c3O)[n+]2C)c1
IC50 (Melanocortin receptor 4): > 2.39 µM (active)
CC50 (Vero): 13.1 µM (active)
IC50 [10]: > 64.5 µM (inactive)
IC50 [3]: 8.71 µM (active)
IC50 (Nonstructural protein 1): 0.676 µM (active)
CC50 [11]: 95.9 µM (active)
IC50 [12]: 34.5 µM (active)
AC50 [9]: 0.276 µM (active)
IC50 [4]: 11.7 µM (active)

O=NN1C(c2ccccc2)CNC(=O)CC1c1ccccc1 (stereo not drawn)
GI50 (SN12K1): 39.2 µM (inactive)
GI50 (P388/ADR): 22.8 µM (inactive)
GI50 (P388): 21.8 µM (inactive)

O=C(CSc1nnc(SCc2ccccc2)s1)N/N=C/c1c[nH]c2ccccc12
IC50 [6]: > 66.6 µM (inactive)
IC50 [7]: 10.4 µM (active)

CC(=O)O[C@H]1C(=O)O[C@@H]2C[C@H]3C(C)=CC(=O)[C@@H](O)[C@]3(C)[C@H]3[C@@]4(O)OC[C@]32[C@@H]1[C@@H](C)[C@H]4O
GI50 (SN12K1): 0.0223 µM (active)
GI50 (P388/ADR): 1.66 µM (inactive)
GI50 (P388): 0.133 µM (active)

CS(=O)(=O)OCCCCOS(C)(=O)=O [BUSULFAN]
GI50 (SN12K1): 215 µM (inactive)
GI50 (P388/ADR): 109 µM (inactive)
GI50 (P388): 117 µM (inactive)

Reference: ChEMBL document CHEMBL1201862, “PubChem BioAssay data set” (2004)
